How the values were obtained:
[1] = test system: Human-derived normal fibroblasts; assay: Cell proliferation efficacy (MTT method); assay type: cell-based; details: 10 μM, 72 hours culture, FIG. 1
Protocol: • 1) Human-derived normal fibroblasts were cultured. • 2) The cells were inoculated in an appropriate number, and after 24 hours, starvation was performed for 24 hours. • 3) The cells were cultured for 72 hours in media treated with samples at different concentrations, respectively. • 4) Cell activity was measured and analyzed by the MTT method.

[2] = Antioxidant efficacy (DPPH assay); assay type: biochemical; details: 1 μM to 50 μM, absorbance at 517 nm, FIG. 2
Protocol: • 1) 115 μL of 70% ethanol was dispensed to each of 96 wells. • 2) 5 μL of each sample and positive control was dispensed, and the absorbance was measured at 517 nm to measure the absorbance before the reaction. • 3) 80 μL of a DPPH solution was dispensed. • 4) After the reaction, the absorbance was measured at 517 nm, and the result was analyzed by using the absorbance values before and after the reaction.

B16F10 cells [3] = assay: Whitening efficacy: inhibition of B16F10 intracellular melanin synthesis; assay type: cell-based; details: 10 μM to 50 μM, α-MSH treated B16F10 cells, 72 hours, FIG. 3
Protocol: • 1) B16F10 cells were cultured. • 2) The cells were inoculated in an appropriate number, and after 24 hours, all groups except blank were treated with α-MSH and samples, respectively. • 3) The cells were cultured for 72 hours in culture media treated with respective samples. • 4) The cells were lysed, the supernatant was separated, and the absorbance value of the supernatant was measured. • 5) The amount of protein in each supernatant was measured and analyzed by the BCA method. • 6) The melanin synthesis value measured in the supernatant was corrected into the amount of protein to calculate the amount of melanin synthesis per unit cell.

B16F10 cells [4] = assay: Whitening efficacy: inhibition of B16F10 extracellular melanin synthesis; assay type: cell-based; details: 10 μM to 50 μM, α-MSH treated B16F10 cells, 72 hours, culture media, FIG. 4
Protocol: • 1) B16F10 cells were cultured. • 2) The cells were inoculated in an appropriate number, and after 24 hours, all groups except blank were treated with α-MSH and samples, respectively. • 3) The cells were cultured for 72 hours in culture media treated with respective samples. • 4) The absorbance values of the cell culture media were measured. • 5) The cells were lysed, the supernatant was separated, and the amount of protein was measured by the BCA method to correct the amount of melanin synthesis. • 6) The measured melanin synthesis value was corrected into the amount of protein to calculate the amount of melanin synthesis per unit cell.

[5] = biological target: T1, tyrosinase (melanin synthase) (Homo sapiens, UniProt P14679); assay: Whitening efficacy: inhibition of tyrosinase activity in pigment cells; assay type: cell-based; details: 1 μM to 50 μM, human-derived normal pigment cells, 72 hours, FIG. 5
T1 construct: The cells were lysed, the supernatant was separated; endogenous in cells; host or cells: human-derived normal pigment cells
T1 sequence (P14679 19-529): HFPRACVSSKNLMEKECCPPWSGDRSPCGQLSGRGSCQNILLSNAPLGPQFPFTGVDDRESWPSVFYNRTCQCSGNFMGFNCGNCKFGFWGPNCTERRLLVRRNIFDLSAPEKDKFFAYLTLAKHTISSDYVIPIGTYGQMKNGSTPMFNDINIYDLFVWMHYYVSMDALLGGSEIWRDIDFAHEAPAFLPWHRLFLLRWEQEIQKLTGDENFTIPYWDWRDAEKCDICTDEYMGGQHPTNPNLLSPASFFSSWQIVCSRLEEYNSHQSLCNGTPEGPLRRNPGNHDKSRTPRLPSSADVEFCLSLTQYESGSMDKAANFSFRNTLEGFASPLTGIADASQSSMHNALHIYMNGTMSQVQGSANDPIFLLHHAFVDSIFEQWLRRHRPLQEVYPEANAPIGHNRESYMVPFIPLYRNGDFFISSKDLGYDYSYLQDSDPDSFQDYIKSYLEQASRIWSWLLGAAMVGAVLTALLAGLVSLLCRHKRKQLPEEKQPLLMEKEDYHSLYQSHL
Protocol: • 1) Human-derived normal pigment cells were inoculated in an appropriate number and cultured for 1 day. • 2) The culture medium was replaced with culture media treated with respective samples and cultured for 72 hours. • 3) The cells were lysed, the supernatant was separated, and the absorbance value of the supernatant was measured at 475 nm at 30 minute intervals while the supernatant was allowed to react with dopa, a reactant, at 37° C. • 4) The amount of protein in the cell lysis supernatant was measured by the BCA method to correct a tyrosinase (melanin synthase) measurement value.

[6] = test system: Human-derived normal fibroblasts; assay: Wrinkle improvement efficacy (collagen synthesis); assay type: cell-based; details: 10 μM to 20 μM, UV-irradiated fibroblasts, FIG. 6
Protocol: • 1) Human-derived normal fibroblasts were inoculated at 2×10^5/6 well and cultured. • 2) Culture was performed for 1 day under starvation conditions. • 3) The cells were treated with samples at different concentrations, respectively, and cultured for 24 hours. • 4) The cells were washed and then irradiated with UV, followed by culture for 48 hours. • 5) The amount of collagen expression in the cell culture medium was measured and analyzed.

Propionibacterium acnes = assay: Anti-acne efficacy (antibacterial efficacy); assay type: cell-based; details: 20 μM to 200 μM, 72 hours anaerobic culture, FIG. 7
Protocol: • 1) Propionibacterium acnes, anaerobic acne bacteria, were cultured under anaerobic culture conditions. • 2) The strain was prepared by adjusting the turbidity to McFarland standard NO. 1, followed by dilution of 1/20 in a liquid culture medium. • 3) Liquid nutrient media were treated with samples at different concentrations, respectively. • 4) After 100 μL of each of the liquid nutrient media treated with the samples was dispensed, 10 μL of the prepared strain was inoculated to each medium. • 5) After the strain was cultured for 72 hours under anaerobic culture conditions, the number of bacteria was measured and analyzed.

[7] = Measurement of absorbance (spectrophotometer); assay type: physicochemical; details: 10 μM to 50 μM in organic solvent; UV-A (320 nm to 400 nm), UV-B (280 nm to 320 nm), UV-C (200 nm to 280 nm), FIG. 8
Protocol: • 1) Resveratrone was dissolved in an organic solvent at a concentration of 10 μM to 50 μM. • 2) The absorbance of resveratrone was measured by using a spectrophotometer.

SMILES: CC(=O)/C=C/c1ccc2cc(O)cc(O)c2c1 [resveratrone, Resveratrone]
- increase in number of cells [1]: 20%
- radical scavenging ability [2]: radical scavenging ability was confirmed
- inhibition of intracellular melanin synthesis (B16F10 cells [3]): inhibition of melanin synthesis was confirmed
- inhibition of extracellular melanin synthesis (B16F10 cells [4]): inhibition of melanin synthesis was confirmed
- inhibition of tyrosinase activity [5]: inhibition of tyrosinase activity was confirmed
- increase in collagen synthesis [6]: increase in collagen synthesis was confirmed
- inhibition of bacterial growth (Propionibacterium acnes): inhibition of bacterial growth was confirmed
- UV absorption [7]: absorption was confirmed in all UV regions
